From paper PMC11212140, “Molecular Bidents with Two Electrophilic Warheads as a New Pharmacological Modality” (ACS Central Science, 2024)

Legend:
Assay in all cases: KiNativ profiling in H3255 cells
Assay type in all cases: cell-based, human
AurA, AurB, AurC = conditions: 2.5 µM; ATP Loop; GKFGNVYLAR
Method: (§1) treatment. Cell viability was determined by using CellTiter-Glo (Promega #G7571) according to the manufacturer’s instructions, measuring luminescence using an Envision plate-reader (PerkinElmer Inc.). Dose-response curves were generated using non-linear regression curve fit in GraphPad Prism 9.2.0(GraphPad Software).
(§2) Cellular target engagement assays
(§3) After 6 hours treatment, cells were pelleted, washed with PBS once and lysed with IP lysis buffer (25mMTris-HCl pH 7.4, 150mM NaCl, 1 mM EDTA, 1% NP-40 and 5% glycerol) (Thermo Fisher Scientific, Cat#87788) containing protease/phosphatase inhibitor cocktail (Roche). The protein concentrations were measured by BCA analysis (Pierce). Cell lysates were incubated with 1 μM of biotin conjugated probe (bio-Osimertinib or bio-ZNL-0013) at 4 ℃ overnight, and incubated for 3 more hours at room temperature. Lysates with probe were then incubated with streptavidin beads (Thermo Fisher, #20349) for 2 hours at 4 ℃. The protein-probe complexes on the beads were then subjected to immunoblotting.
(§4) H3255 cells were plated with 6.5x10^6 per condition in fresh media in 15 cm plates and treated the 80% confluency for 2 hours with DMSO or 2.5 μM of ZNL-0056. To harvest cells, plates were washed 3 times with cold PBS, then collected by scraping into 4 mL of cold PBS containing protease and phosphatase inhibitors. Cells were pelleted by centrifugation at 1350 g at 4 ℃ for 5 minutes and immediately frozen in liquid nitrogen. The frozen samples were sent to ActivX Biosciences (La Jolla, CA) for the remainder of the KiNativ profiling experiment4.
(§5) Protein expression and purification
(§6) Human EGFR kinase domain (residues 696-1022) with T790M and V948R mutations was cloned with an N-terminal, protease cleavable His -GST tag. Recombinant protein was expressed in SF9 insect cells using baculovirus generated from the pFastBac system (Thermo Fisher) .
(§7) Briefly, cells at a density of ~2x10^6 cells/mL were infected with 1% (v/v) virus stock and grown for ~72 hours before harvesting and freezing the cell pellet . Infected cells were lysed in buffer A (50 mM Tris pH 8.0, 500 mM NaCl, 5% glycerol, 0.5 mM Tris(2-carboxyethyl)phosphine [TCEP]), ultracentrifuged at >200,000 rcf for 1 h, and the supernatant flo wed through Ni-NTA resin by gravity. The resin was washed with buffer A supplemented with 40 mM imidazole by […]

CDK7 = tested on: T1, CDK7; conditions: 2.5 µM
T1 construct: purchased ActivX Biosciences (KiNativ)
Method: as §1, §2, §3, §4, §5, §6, §7

CDKL3 = tested on: T2, CDKL3; conditions: 2.5 µM; Lys2; DIKPENILVSQSGITK
T2 construct: purchased ActivX Biosciences (KiNativ)
Method: as §1, §2, §3, §4, §5, §6, §7

CK1g1, CK1g2, CK1g3 = conditions: 2.5 µM; ATP Loop; KIGCGNFGELR
Method: as §1, §2, §3, §4, §5, §6, §7

CK1g3 = tested on: T3, CK1g3; conditions: 2.5 µM; Lys2; DVKPENFLIGRPGNK
T3 construct: purchased ActivX Biosciences (KiNativ)
Method: as §1, §2, §3, §4, §5, §6, §7

DGKA = tested on: T4, DGKA; conditions: 2.5 µM; ATP; IDPVPNTHPLLVFVNPKSGGK
T4 construct: purchased ActivX Biosciences (KiNativ)
Method: as §1, §2, §3, §4, §5, §6, §7

EGFR-L858R = tested on: T5, EGFR-L858R; conditions: 2.5 µM; Activation Loop; AKLLGAEEK
T5 construct: purchased ActivX Biosciences (KiNativ)
Method: as §1, §2, §3, §4, §5, §6, §7

MAP2K7 = tested on: T6, MAP2K7; conditions: 2.5 µM; Lys2; DVKPSNILLDER
T6 construct: purchased ActivX Biosciences (KiNativ)
Method: as §1, §2, §3, §4, §5, §6, §7

MARK3, MARK4 = conditions: 2.5 µM; Lys1; EVAIKIIDK
Method: as §1, §2, §3, §4, §5, §6, §7

MAST3 = tested on: T7, MAST3; conditions: 2.5 µM; Lys2; DLKPDNLLITSLGHIK
T7 construct: purchased ActivX Biosciences (KiNativ)
Method: as §1, §2, §3, §4, §5, §6, §7

MLK1 = tested on: T8, MLK1; conditions: 2.5 µM; Lys2; DLKSSNILILQK
T8 construct: purchased ActivX Biosciences (KiNativ)
Method: as §1, §2, §3, §4, §5, §6, §7

MPSK1 = tested on: T9, MPSK1; conditions: 2.5 µM; Lys2; DLKPTNILLGDEGQPVLMDLGSMNQACIHVEGSR
T9 construct: purchased ActivX Biosciences (KiNativ)
Method: as §1, §2, §3, §4, §5, §6, §7

MRCKb = tested on: T10, MRCKb; conditions: 2.5 µM; Lys2; DIKPDNVLLDVNGHIR
T10 construct: purchased ActivX Biosciences (KiNativ)
Method: as §1, §2, §3, §4, §5, §6, §7

MSK1 domain1 = tested on: T11, MSK1 domain1; conditions: 2.5 µM; Lys2; DIKLENILLDSNGHVVLTDFGLSK
T11 construct: MSK1 domain1; purchased ActivX Biosciences (KiNativ)
Method: as §1, §2, §3, §4, §5, §6, §7

MST4, YSK1 = conditions: 2.5 µM; Lys2; DIKAANVLLSEQGDVK
Method: as §1, §2, §3, §4, §5, §6, §7

NDR2 = tested on: T12, NDR2; conditions: 2.5 µM
T12 construct: purchased ActivX Biosciences (KiNativ)
Method: as §1, §2, §3, §4, §5, §6, §7

NEK9 = tested on: T13, NEK9; conditions: 2.5 µM
T13 construct: purchased ActivX Biosciences (KiNativ)
Method: as §1, §2, §3, §4, §5, §6, §7

NuaK1 = tested on: T14, NuaK1; conditions: 2.5 µM; Lys1; VVAIKSIR
T14 construct: purchased ActivX Biosciences (KiNativ)
Method: as §1, §2, §3, §4, §5, §6, §7

PCTAIRE2 = tested on: T15, PCTAIRE2; conditions: 2.5 µM; Lys2; DLKPQNLLINEK
T15 construct: purchased ActivX Biosciences (KiNativ)
Method: as §1, §2, §3, §4, §5, §6, §7

PDK1 = tested on: T16, PDK1; conditions: 2.5 µM; Lys1; EYAIKILEK
T16 construct: purchased ActivX Biosciences (KiNativ)
Method: as §1, §2, §3, §4, §5, §6, §7

PKN2 = tested on: T17, PKN2; conditions: 2.5 µM; Lys2; DLKLDNLLLDTEGFVK
T17 construct: purchased ActivX Biosciences (KiNativ)
Method: as §1, §2, §3, §4, §5, §6, §7

SLK = tested on: T18, SLK; conditions: 2.5 µM
T18 construct: purchased ActivX Biosciences (KiNativ)
Method: as §1, §2, §3, §4, §5, §6, §7

VRK2 = tested on: T19, VRK2; conditions: 2.5 µM; Lys2; MLDVLEYIHENEYVHGDIKAANLLLGYK
T19 construct: purchased ActivX Biosciences (KiNativ)
Method: as §1, §2, §3, §4, §5, §6, §7

Wnk1, Wnk2, Wnk4 = conditions: 2.5 µM; Activation Loop; IGDLGLATLKR
Method: as §1, §2, §3, §4, §5, §6, §7

Row | Structure (SMILES) | Inhibition (AurA, AurB, AurC) | Inhibition (CDK7; Lys1, DKNTNQIVAIKK) | Inhibition (CDK7; Lys2, DLKPNNLLLDENGVLK) | Inhibition (CDKL3) | Inhibition (CK1g1, CK1g2, CK1g3) | Inhibition (CK1g3) | Inhibition (DGKA) | Inhibition (EGFR-L858R) | Inhibition (MAP2K7) | Inhibition (MARK3, MARK4) | Inhibition (MAST3) | Inhibition (MLK1) | Inhibition (MPSK1) | Inhibition (MRCKb) | Inhibition (MSK1 domain1) | Inhibition (MST4, YSK1) | Inhibition (NDR2; Lys1, DTGHIYAMKILR) | Inhibition (NDR2; Lys2, DIKPDNLLLDAK) | Inhibition (NEK9; Activation Loop, LGDYGLAKK) | Inhibition (NEK9; Lys1, RTEDDSLVVWKEVDLTR) | also measured
1 | C=CC(=O)Nc1cc(Nc2nccc(-c3cn(C)c4ccccc34)n2)c(OC)cc1N(C)CCN(C)C [Osimertinib, osimertinib, reference compound] | 20.5% | 34.0% | 14.2% | 4.6% | -14.3% | 7.1% | -5.7% | 98.2% | -1.4% | -12.5% | -21.8% | 34.9% | 0.8% | -26.5% | -10.4% | -8.7% | -19.7% | -0.656% | -11.0% | -18.7% | Inhibition (NEK9; Lys2, DIKTLNIFLTK): -12.2%; Inhibition (NuaK1): 2.8%; Inhibition (PCTAIRE2): 2.6%; Inhibition (PDK1): -20.7%; Inhibition (PKN2): 9.8%; Inhibition (SLK; Lys1, AQNKETSVLAAAKVIDTK): -11.7%; Inhibition (SLK; Lys2, DLKAGNILFTLDGDIK): 8.3%; Inhibition (VRK2): 6.4%; Inhibition (Wnk1, Wnk2, Wnk4): -32.3%
2 | C=CC(=O)Nc1cc(C(=O)Nc2nc3cccc(C)c3n2[C@@H]2CCCCN(C(=O)C=C)C2)cs1 [ZNL-0056] | 2.2% | -17.3% | -3.1% | -6.0% | 13.6% | 18.0% | 14.0% | 97.2% | 90.7% | 16.2% | 3.9% | -4.3% | 7.6% | 14.5% | 10.0% | -9.0% | 11.0% | 3.3% | -6.5% | 3.2% | Inhibition (NEK9; Lys2, DIKTLNIFLTK): 4.4%; Inhibition (NuaK1): 17.0%; Inhibition (PCTAIRE2): -15.1%; Inhibition (PDK1): 17.6%; Inhibition (PKN2): 22.0%; Inhibition (SLK; Lys1, AQNKETSVLAAAKVIDTK): -4.8%; Inhibition (SLK; Lys2, DLKAGNILFTLDGDIK): -22.3%; Inhibition (VRK2): 7.9%; Inhibition (Wnk1, Wnk2, Wnk4): 1.3%
